Tests used:
human hepatocytes [1] = test: Hepatocyte stability (metabolic stability in human hepatocytes, LC-MS/MS); conditions: for Normalized area (240 minutes), prototype compound peak (molecular weight shift 0.00): human hepatocytes 1.0 × 10^6 cells/mL, 37° C.
Protocol: (§2) The metabolic stability of the compounds was tested using human hepatocytes.
(§3) • 1. The compounds and hepatocytes were incubated for 240 minutes in the following system.
(§4) The culture was inactivated with 2 volumes of acetonitrile (0.1% FA) and then centrifuged for 15 minutes at 16,000 g. • 3. The supernatant was analyzed by LC-MS/MS for prototype compounds and metabolites.

RARγ = target: T1, RARγ (Homo sapiens, UniProt P13631); test: Agonist activity on RARγ, dual luciferase reporter gene assay in transfected HEK-293 cells; format: cell-based; conditions: for EC50: HEK-293 cells, 24 h incubation, firefly/Renilla luciferase signal; for selectivity on RARγ compared with Trifarotene: RARγ versus RARα, from Table 2; for agonist activity on RARγ compared with Trifarotene: comparison of Table 2 EC50 values
T1 construct: expressed in transfected cells; host or cells: HEK-293 (ATCC #CRL-1573)
T1 sequence (P13631 1-454): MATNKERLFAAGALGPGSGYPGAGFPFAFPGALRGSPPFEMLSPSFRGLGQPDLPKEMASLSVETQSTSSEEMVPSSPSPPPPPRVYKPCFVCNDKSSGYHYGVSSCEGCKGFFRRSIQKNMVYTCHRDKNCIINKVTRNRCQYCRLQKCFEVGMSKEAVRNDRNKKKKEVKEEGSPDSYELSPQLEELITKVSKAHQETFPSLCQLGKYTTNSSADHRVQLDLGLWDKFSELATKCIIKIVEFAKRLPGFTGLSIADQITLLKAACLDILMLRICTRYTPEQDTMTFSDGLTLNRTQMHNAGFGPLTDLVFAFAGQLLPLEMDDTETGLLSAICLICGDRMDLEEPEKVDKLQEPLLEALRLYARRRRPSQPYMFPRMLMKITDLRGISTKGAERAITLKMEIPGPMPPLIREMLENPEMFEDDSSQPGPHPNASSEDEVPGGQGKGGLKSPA
Protocol: (§1) • 1. Day 1: Cell culture. The culture dish was treated with trypsin, and then cells at an appropriate concentration were inoculated into 10 mL of culture medium. Cell culture conditions: 37° C., 5% CO2, humid environment. • 2. Day 3: Transfection with FuGENE transfection reagent. A transfection mixture was prepared using the method of the supplier's instructions, then the tube was shaken vigorously to mix well, and the transfection mixture was left to incubate for 15 minutes at room temperature. The mixture was treated with trypsin to determine the cell density, and the cell suspension was appropriately diluted to the appropriate volume and density. The appropriate transfection reagent mixture was added thereto, and the cell suspension was added to a 96-well plate at 100 μL per well. The 96-well plate was incubated for 24 hours under the cell culture conditions in step 1. • 3. Day 4: Addition of test compound. The compound was formulated into a DMSO stock solution at a concentration of 210× and diluted to make a solution at a concentration of 21× by the addition of 9 times the amount of solvent. 5 μL of the compound solution at a concentration of 21× was added to each well and incubated for 24 hours under the same conditions as step 1. • 4. Day 5: Plate reading. The Dual Luciferase Reporter Gene Assay System was left at room temperature for 30 minutes prior to use, and […] was added to each well of the 96-well plate to detect the intensity of firefly luciferin in an appropriate manner. Afterwards, Stop&Glo reagent was added to detect the intensity of Renilla luciferin. • 5. Data processing. Signal=intensity of firefly luciferin/intensity of Renilla luciferin, multiple of agonist activation=compound signal/baseline signal (the intensity of the baseline signal was obtained from DMSO solution without the compound). pEC50 values were obtained by processing the data with GraphPad Prism, which were further converted to EC50 values.

RARα = target: T2, RARα (Homo sapiens, UniProt P10276); test: Agonist activity on RARα, dual luciferase reporter gene assay in transfected HEK-293 cells; format: cell-based; conditions: 24 h incubation, firefly/Renilla luciferase signal
T2 construct: expressed in transfected cells; host or cells: HEK-293 (ATCC #CRL-1573)
T2 sequence (P10276 1-462): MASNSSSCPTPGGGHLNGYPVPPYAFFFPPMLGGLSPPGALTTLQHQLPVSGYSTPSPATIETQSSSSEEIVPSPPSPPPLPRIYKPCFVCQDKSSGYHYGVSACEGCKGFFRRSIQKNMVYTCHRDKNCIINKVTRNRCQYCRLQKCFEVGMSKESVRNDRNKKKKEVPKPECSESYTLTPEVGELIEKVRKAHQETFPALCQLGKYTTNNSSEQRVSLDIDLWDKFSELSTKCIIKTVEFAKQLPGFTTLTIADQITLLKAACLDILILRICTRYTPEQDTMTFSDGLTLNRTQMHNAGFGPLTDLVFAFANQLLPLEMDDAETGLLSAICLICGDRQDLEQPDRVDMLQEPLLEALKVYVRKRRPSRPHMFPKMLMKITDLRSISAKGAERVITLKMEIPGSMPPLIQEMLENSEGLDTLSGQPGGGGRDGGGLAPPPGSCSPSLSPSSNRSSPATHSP
Protocol: as §1

human hepatocytes [2] = conditions: 10 µM
Protocol: as §2, §3, §4

Row | Structure (SMILES) | prototype compound remaining after 240 minutes of incubation in hepatocytes (human hepatocytes [1]; human hepatocytes) | Normalized area (240 minutes), prototype compound peak (molecular weight shift 0.00) (human hepatocytes [1]; 10 μM) [%] | Normalized area (240 minutes), Peak 3 of Trifarotene (molecular weight shift 16.00) (human hepatocytes [1]; human hepatocytes, 10 μM, metabolite peak m/z 476.24) [%] | Normalized area (240 minutes), Peak 1 of Trifarotene (molecular weight shift 31.99) (human hepatocytes [1]; human hepatocytes, 10 μM, metabolite peak m/z 492.24, retention time 4.18 minutes) [%] | Normalized area (240 minutes), Peak 4 of Trifarotene (molecular weight shift 31.99) (human hepatocytes [1]; human hepatocytes, 10 μM, metabolite peak m/z 492.24, retention time 7.76 minutes) [%] | Normalized area (240 minutes), Peak 2 of Trifarotene (molecular weight shift 192.03) (human hepatocytes [1]; human hepatocytes, 10 μM, metabolite peak m/z 652.27) [%] | EC50 (RARγ) [nM] | selectivity on RARγ compared with Trifarotene (RARγ) | EC50 (RARα) [nM] | agonist activity on RARγ compared with Trifarotene (RARγ) | Normalized area (240 minutes), Peak 4 of compound I-1 (molecular weight shift 0.02) (human hepatocytes [2]) [%]
1 | CC(C)(C)c1cc(-c2cc(-c3ccc(C(=O)O)cc3)ccc2OCCO)ccc1N1CCCC1 [Trifarotene] | 13.57% | 13.57 | 54.29 | 9.35 | 9.10 | 9.98 | – | – | – | – | –
2 | C[Si](C)(C)c1cc(-c2cc(-c3ccc(C(=O)O)cc3)ccc2OCCCCO)ccc1N1CCCC1 [Compound I-3, 4′-(4-hydroxybutoxy)-4″-(pyrrolidin-1-yl)-3″-(trimethylsilyl)-[1,1′:3′,1″-terphenyl]-4-carboxylic acid] | – | – | – | – | – | – | 9.08 | better than that of Trifarotene | 382 | – | –
3 | C[Si]1(C)CC[Si](C)(C)c2cc(-c3cc(-c4ccc(C(=O)O)cc4)ccc3OCCO)ccc21 [Compound I-5, 4′-(2-hydroxyethoxy)-3′-(1,1,4,4-tetramethyl-1,2,3,4-tetrahydrobenzo[b][1,4]disilan-6-yl)-[1,1′-biphenyl]-4-carboxylic acid] | – | – | – | – | – | – | 1.05 | better than that of Trifarotene | 18.5 | equal to or stronger than that of Trifarotene | –
4 | C[Si](C)(C)c1cc(-c2cc(-c3ccc(C(=O)O)cc3)ccc2OCCCO)ccc1N1CCCC1 [Compound I-2, 4′-(3-hydroxypropoxy)-4″-(pyrrolidin-1-yl)-3″-(trimethylsilyl)-[1,1′:3′,1″-terphenyl]-4-carboxylic acid] | – | – | – | – | – | – | 0.77 | better than that of Trifarotene | 15.5 | equal to or stronger than that of Trifarotene | –
5 | C[Si](C)(C)c1cc(-c2cc(-c3ccc(C(=O)O)cc3)ccc2OCCO)ccc1N1CCCC1 [Compound I-1, 4′-(2-hydroxyethoxy)-4′-(pyrrolidin-1-yl)-3′-(trimethylsilyl)-[1,1′:3′,1′-terphenyl]-4-carboxylic Acid] | less than 1% | 0.12 | – | – | – | – | 0.88 | better than that of Trifarotene | 64 | equal to or stronger than that of Trifarotene | 68.15

— US20240217992A1, “RETINOIC ACID RECEPTOR AGONIST, PREPARATION METHOD THEREFOR, INTERMEDIATE, PHARMACEUTICAL COMPOSITION AND USE” (JIANGXI KERUI PHARMACEUTICAL CO., LTD., priority 2021, published 2024)
